Results from US9507284B2, “Electrophotographic photoreceptor, electrophotographic photoreceptor cartridge, image-forming apparatus, and triarylamine compound” (MITSUBISHI CHEMICAL CORPORATION, priority 2012, dated 2016).

Experiment: Storage Stability Test (coating fluid)
Type: physicochemical
Design: key: Excellent: Turbidity or the like derived from crystal precipitation is not present even after storage of coating fluid; Bad: Turbidity or the like derived from precipitation of the charge transport substance is present after storage of coating fluid
Settings: charge transport layer coating fluid (60 parts substance, 100 parts polycarbonate PD, tetrahydrofuran/toluene 8/2) stored at −5 to 0° C. for 2 months, checked for turbidity
Procedure: As the binder resin, the polycarbonate resin (Mv=39,200) having a repeating unit represented by the structural formula (PD) was used. Then, 60 parts by mass of the charge transport substance, 100 parts by mass of the binder resin, 2 parts by mass of an antioxidant having a structure represented by the following formula (AOX2), and 0.05 parts by mass of a silicone oil as a leveling agent were dissolved in 540 parts by mass of a mixed solvent of tetrahydrofuran/toluene (mass ratio: 8/2) to prepare a charge transport layer coating fluid for coating fluid storage stability test.
The coating fluid obtained was placed in a glass sealed bottle and stored under the condition of −5 to 0° C. for 2 months. Then, it was checked whether turbidity or the like occurred or not in the coating fluid after storage, thereby evaluating the coating fluid storage stability.
The charge transport substances used in evaluation, the results of stability evaluation, and the criteria for the coating fluid stability are shown in the following Table-6.

Storage stability	SMILES
Excellent	CCOc1ccc(N(c2ccc(/C=C/c3ccc(N(c4ccc(C)cc4)c4ccc(C)cc4)cc3)cc2)c2ccc(/C=C/c3ccc(N(c4ccc(C)cc4)c4ccc(C)cc4)cc3)cc2)cc1 [CTM1]
Bad	Cc1ccc(N(c2ccc(C)cc2)c2ccc(/C=C/c3ccc(N(c4ccc(C)cc4)c4ccc(/C=C/c5ccc(N(c6ccc(C)cc6)c6ccc(C)cc6)cc5)cc4)cc3)cc2)cc1 [RCTM1]
